Measured values reported in patent US5670492A, “DC-89 derivatives” (priority 1994, dated 1997).

test system: ddY-strain male mice; assay: Acute Toxicity; assay type: in vivo; conditions: i.v., mortality at 14 days after administration
Method: Compound (I) was intravenously administered to ddY-strain male mice each weighing 20±1 g. MLD (minimum lethal dose) was determined by observing the mortality at 14 days after administration.

SMILES | MLD (minimum lethal dose) [mg/kg]
COC(=O)c1c(C)[nH]c2c(OC(C)=O)cc3c(c12)C(CCl)CN3C(=O)/C=C/c1ccc(OC)c(N(C)C)c1 (centres unmarked) [Compound 51] | 4.0
COC(=O)c1c(C)[nH]c2c(OC(=O)N(C)N)cc3c(c12)C(CBr)CN3C(=O)/C=C/c1ccc(OC)c(N(C)C)c1 (centres unmarked) [Compound 53] | 2.0
COC(=O)c1c(C)[nH]c2c(OC(=O)c3ccc(N(C)C)cc3)cc3c(c12)C(CBr)CN3C(=O)/C=C/c1ccc(OC)c(N(C)C)c1 (centres unmarked) [Compound 56] | 1.0
COC(=O)c1c(C)[nH]c2c(OC(=O)c3cccnc3)cc3c(c12)C(CBr)CN3C(=O)/C=C/c1cnc(OC)nc1 (centres unmarked) [Compound 67] | 1.0
COC(=O)c1c(C)[nH]c2c(OC(=O)c3cccnc3)cc3c(c12)C(CBr)CN3C(=O)/C=C/c1ccc(N(C)C)cc1 (centres unmarked) [Compound 77] | 4.0
COC(=O)c1c(C)[nH]c2c(OC(=O)CN3CCN(C)CC3)cc3c(c12)C(CBr)CN3C(=O)/C=C/c1ccc(OC)c(N(C)C)c1 (centres unmarked) [Compound 82] | 2.0

test system: not listed separately; assay: Test for Solubility in Water; assay type: physicochemical; conditions: room temperature
Method: A sample tube was charged with 0.7 mg of Compound (I), and 30 μl of water were added thereto at room temperature. The mixture was stirred, and the solubility in water was measured. When the compound was not dissolved, 30 μl of water was added thereto successively, and the mixture was stirred. The solubility in water was measured when the compound was dissolved.

SMILES | solubility [mg/mL]
COC(=O)c1c(C)[nH]c2c(OC(=O)N3CCN(C)CC3)cc3c(c12)C(CBr)CN3C(=O)/C=C/c1ccc(OC)cn1 (centres unmarked) [Compound 17] | > 20
COC(=O)c1c(C)[nH]c2c(OC(=O)N3CCN(C)CC3)cc3c(c12)C(CBr)CN3C(=O)/C=C/c1ccc(OC)c(OCCCN)c1 (centres unmarked) [Compound 32] | > 20
COC(=O)c1c(C)[nH]c2c(OC(=O)N3CCN(C)CC3)cc3c(c12)C(CBr)CN3C(=O)/C=C/c1ccc(OC)c(N)c1 (centres unmarked) [Compound 40] | > 20
COC(=O)c1c(C)[nH]c2c(OC(C)=O)cc3c(c12)C(CCl)CN3C(=O)/C=C/c1ccc(OC)c(N(C)C)c1 (centres unmarked) [Compound 51] | > 10
COC(=O)c1c(C)[nH]c2c(OC(=O)c3nccnc3N)cc3c(c12)C(CBr)CN3C(=O)/C=C/c1ccc(OC)c(N(C)C)c1 (centres unmarked) [Compound 58] | > 20
COC(=O)c1c(C)[nH]c2c(OC(=O)CN3CCN(C)CC3)cc3c(c12)C(CBr)CN3C(=O)/C=C/c1ccc(OC)c(N(C)C)c1 (centres unmarked) [Compound 82] | > 10

test system: HeLaS3 cells; assay: Growth Inhibitory Effect Against HeLaS3 cells; assay type: cell-based; conditions: Homo sapiens, HeLa S3, 72 h
Method: HeLaS3 cells were suspended in MEM medium containing 10% calf serum and 2 mM glutamine to a concentration of 2.67×10^4 cells/mi. The cell suspension thus prepared was put into wells of a 24-well culture plate in an amount of 0.75 ml per well. After the cells were incubated in a CO2 incubator overnight at 37° C., Compound (I) which had been appropriately diluted with a culture medium was added to each well in an amount of 0.25 ml.
The cells were further incubated in the CO2 incubator for 72 hours, and the culture supernatant was removed. Then, the cells were dispersed in a solution of trypsin and EDTA and recovered. The number of cells was counted using a cell counter. The concentration (IC50) of Compound (I) at which the growth of the cells is inhibited by 50% was calculated by comparing the number of untreated cells with the number of the cells treated with Compound (I) at known concentrations.

SMILES | IC50 [nM]
COC(=O)c1c(C)[nH]c2c(OC(=O)N(C)N)cc3c(c12)C(CBr)CN3C(=O)/C=C/c1ccc(OC)c(N(C)C)c1 (centres unmarked) [Compound 53] | 1.2
COC(=O)c1c(C)[nH]c2c(OC(=O)c3ccc(N(C)C)cc3)cc3c(c12)C(CBr)CN3C(=O)/C=C/c1ccc(OC)c(N(C)C)c1 (centres unmarked) [Compound 56] | 2.2
COC(=O)c1c(C)[nH]c2c(OC(=O)c3cccnc3)cc3c(c12)C(CBr)CN3C(=O)/C=C/c1cnc(OC)nc1 (centres unmarked) [Compound 67] | 1.2
COC(=O)c1c(C)[nH]c2c(OC(=O)c3cccnc3)cc3c(c12)C(CBr)CN3C(=O)/C=C/c1ccc(N(C)C)cc1 (centres unmarked) [Compound 77] | 0.45
COC(=O)c1c(C)[nH]c2c(OC(=O)CN3CCN(C)CC3)cc3c(c12)C(CBr)CN3C(=O)/C=C/c1ccc(OC)c(N(C)C)c1 (centres unmarked) [Compound 82] | 0.5

same assay, conditions: Homo sapiens, HeLa S3, 72 hours, read-out: IC50

SMILES | IC50 [nM]
COC(=O)c1c(C)[nH]c2c(OC(C)=O)cc3c(c12)C(CCl)CN3C(=O)/C=C/c1ccc(OC)c(N(C)C)c1 (centres unmarked) [Compound 51] | 0.46

test system: Sarcoma 180 tumor; assay: Therapeutic Effect Against Sarcoma 180 Tumor; assay type: in vivo, male ddY-strain mice; conditions: Mus musculus, Sarcoma-180, iv, 168 h, read-out: T/C
Method: Five male ddY-strain mice each weighing 18-20 g were used for each group as test animals, and 5×10^5 Sarcoma 180 tumor cells were implanted at the axilla subcutaneously. One day after the implantation, 0.2 ml of a physiological saline containing Compound (I) at the concentration shown in Table 2 was intravenously administered to each mouse. T/C [T: average tumor volume (mm^3) of the group treated with the test compound, C: average tumor volume (mm^3) of the control group (to which […] of a physiological saline was intravenously administered)] was determined seven days after the implantation.

SMILES | response vs control in vivo at 2 mg/kg [%] | response vs control in vivo at 1 mg/kg [%] | response vs control in vivo at 4 mg/kg [%]
COC(=O)c1c(C)[nH]c2c(OC(=O)N(C)N)cc3c(c12)C(CBr)CN3C(=O)/C=C/c1ccc(OC)c(N(C)C)c1 (centres unmarked) [Compound 53] | 7 |  | 
COC(=O)c1c(C)[nH]c2c(OC(=O)c3ccc(N(C)C)cc3)cc3c(c12)C(CBr)CN3C(=O)/C=C/c1ccc(OC)c(N(C)C)c1 (centres unmarked) [Compound 56] |  | 36 | 
COC(=O)c1c(C)[nH]c2c(OC(=O)c3cccnc3)cc3c(c12)C(CBr)CN3C(=O)/C=C/c1cnc(OC)nc1 (centres unmarked) [Compound 67] |  | 26 | 
COC(=O)c1c(C)[nH]c2c(OC(=O)c3cccnc3)cc3c(c12)C(CBr)CN3C(=O)/C=C/c1ccc(N(C)C)cc1 (centres unmarked) [Compound 77] |  |  | 19

same assay, conditions: Mus musculus, Sarcoma-180, iv, 168 h; 4.0 mg/kg, single i.v. one day after s.c. implantation; tumor volume ratio seven days after implantation; read-out: T/C

SMILES | response vs control in vivo at 4 mg/kg [%]
COC(=O)c1c(C)[nH]c2c(OC(C)=O)cc3c(c12)C(CCl)CN3C(=O)/C=C/c1ccc(OC)c(N(C)C)c1 (centres unmarked) [Compound 51] | 14
